# Assay results: patent US6608069B1, “Phenyl xanthine derivatives” (SmithKline Beecham Corporation, priority 1998, dated 2003)
# System: cytokine-stimulated human umbilical vein endothelial cells
# Test: Cell Adhesion Assay: adherence of fluorescently-labelled leukocytes to endothelial cell monolayers
# Format: cell-based
# Conditions: inhibition of cytokine-stimulated adhesion minus basal adhesion; calcein-AM labelled leukocytes on HUVEC monolayers
# Method: The antiadhesion activity of compounds of the invention was determined using a modification of the previously described method, Jurgensen, C. H. et. al., J. Immunol. 144: 653-661. The adhesiveness of cytokine-stimulated human umbilical vein endothelial cells was assessed by quantitating the adherence of fluorescently-labelled (calcein-AM, Molecular Probes, Eugene, Oreg.) leukocytes to endothelial cell monolayers. Activity was determined by calculating inhibition of cytokine-stimulated adhesion minus the basal adhesion (unstimulated).
row,IC50 [µM],SMILES
1,0.23 ± 0.1,"COCCOCCOCCOCCOCCOCCOCCOCCOCCOC(=O)/C=C/c1ccc(-c2nc3c(=O)n(C4CCCCC4)c(=O)n(C4CCCCC4)c3[nH]2)cc1 [Example 66, (E)-4-[1,3-Bis(cyclohexyl)-1,2,3,6-tetrahydro-2,6-dioxo-9H-purin-8-yl]cinnamic Acid Nonaethylene Glycol Methyl Ether Ester]"
2,2 ± 0.82,"COCCOCCOCCOCCOCCOCCOCCOCCOCCNC(=O)/C=C/c1cccc(-c2nc3c(=O)n(CC4CCCCC4)c(=O)n(CC4CCCCC4)c3[nH]2)c1 [Example 67, (E)-3-(1,3-bis(cyclohexylmethyl)-1,2,3,6-tetrahydro-2,6-dioxo-9H-purin-8-yl)cinnamic Acid Nonaethylene Glycol Methyl Ether Amide]"
3,0.062 ± 0.027,"COCCOCCOCCOCCOCCOCCOCCOCCOCCNC(=O)/C=C/c1ccc(-c2nc3c(=O)n(CC4CCCCC4)c(=O)n(CC4CCCCC4)c3[nH]2)cc1 [Example 69, (E)-4-(1,3-Bis(cyclohexylmethyl)-1,2,3,6-tetrahydro-2,6-dioxo-9H-purin-8-yl)cinnamic Acid Nonaethylene Glycol Methyl Ether Amide]"
4,> 1,"COCCOCCOCCOCCOCCOCCOCCOCCOCCNC(=O)/C=C/c1ccc(-c2nc3c(=O)n(Cc4ccccc4)c(=O)n(Cc4ccccc4)c3[nH]2)cc1 [Example 70, (E)-4-[1,3-bis(benzyl)-1,2,3,6-tetrahydro-2,6-dioxo-9H-purin-8-y]cinnamic Acid Nonaethylene Glycol Methyl Ether Amide]"
5,0.24 ± 0.2,"COCCOCCOCCOCCOCCOCCOCCOCCOCCNC(=O)/C=C/c1ccc(-c2nc3c(=O)n(CC4CCCC4)c(=O)n(CC4CCCC4)c3[nH]2)cc1 [Example 71, (E)-4-(1,3-bis(cyclopentylmethyl)-1,2,3,6-tetrahydro-2,6-dioxo-9H-purin-8-yl)cinnamic Acid Nonaethylene Glycol Methyl Ether Amide]"
6,> 2,"COCCOCCOCCOCCOCCOCCOCCOCCOCCNC(=O)/C=C/c1ccc(-c2nc3c(=O)n(CC(C)C)c(=O)n(CC(C)C)c3[nH]2)cc1 [Example 72, (E)-4-(1,3-bis(2-methylpropyl)-1,2,3,6-tetrahydro-2,6-dioxo-9H-purin-8-yl)cinnamic Acid Nonaethylene Glycol Methyl Ether Amide]"
7,0.0096 ± 0.005,"COCCOCCOCCOCCOCCOCCOCCOCCOCCOC(=O)/C=C/c1ccc(-c2nc3c(c(=O)n(CC4CCCCC4)c(=O)n3CC3CCCCC3)n2Cc2ccccc2)cc1 [Example 77, (E)-4-(1,3-Bis(cyclohexylmethyl)-2,3,6,7-tetrahydro-2,6-dioxo-7-benzyl-1H-purin-8-yl)cinnamic Acid Nonaethylene Glycol Methyl Ether Ester]"
8,0.0001 ± 9e-05,"COCCOCCOCCOCCOCCOCCOCCOCCOCCOC(=O)/C=C/c1ccc(-c2nc3c(c(=O)n(CC4CCCCC4)c(=O)n3CC3CCCCC3)n2CC(=O)c2ccccc2)cc1 [Example 78, (E)-4-(1,3-Bis(cyclohexylmethyl)-2,3,6,7-tetrahydro-2,6-dioxo-7-(2-oxo-2-phenylethyl)-1H-purin-8-yl)cinnamic Acid Nonaethylene Glycol Methyl Ether Ester]"
9,0.01 ± 0.004,"C#CCn1c(-c2ccc(/C=C/C(=O)OCCOCCOCCOCCOCCOCCOCCOCCOCCOC)cc2)nc2c1c(=O)n(CC1CCCCC1)c(=O)n2CC1CCCCC1 [Example 80, (E)-4-(1,3-Bis(cyclohexylmethyl)-2,3,6,7-tetrahydro-2,6-dioxo-7-(2-propynyl)-1H-purin-8-yl)cinnamic Acid Nonaethylene Glycol Methyl Ether Ester]"
10,0.016 ± 0.018,"COCCOCCOCCOCCOCCOCCOCCOCCOCCOC(=O)/C=C/c1ccc(-c2nc3c(c(=O)n(CC4CCCCC4)c(=O)n3CC3CCCCC3)n2CC(C)=O)cc1 [Example 81, (E)-4-(1,3-Bis(cyclohexylmethyl)-2,3,6,7-tetrahydro-2,6-dioxo7-(2-oxo-2-methylethyl)-1H-purin-8-yl)cinnamic Acid Nonaethylene Glycol Methyl Ether Ester]"
11,0.019 ± 0.016,"COCCOCCOCCOCCOCCOCCOCCOCCOCCOC(=O)/C=C/c1ccc(-c2nc3c(c(=O)n(CC4CCCCC4)c(=O)n3CC3CCCCC3)n2CN2CCOCC2)cc1 [Example 82, (E)-4-(1,3-Bis(cyclohexylmethyl)-2,3,6,7-tetrahydro-2,6-dioxo-7-(4-morpholinylmethyl)-1H-purin-8-yl)cinnamic Acid Nonaethylene Glycol Methyl Ether Ester]"
12,0.028 ± 0.012,"CCn1c(-c2ccc(/C=C/C(=O)OCCOCCOCCOCCOCCOCCOCCOCCOCCOC)cc2)nc2c1c(=O)n(CC1CCCCC1)c(=O)n2CC1CCCCC1 [Example 83, (E)-4-(1,3-Bis(cyclohexylmethyl)-2,3,6,7-tetrahydro-2,6-dioxo-7-ethyl-1H-purin-8-yl)cinnamic Acid Nonaethylene Glycol Methyl Ether Ester]"
13,0.007 ± 0.004,"CCOC(=O)Cn1c(-c2ccc(/C=C/C(=O)OCCOCCOCCOCCOCCOCCOCCOCCOCCOC)cc2)nc2c1c(=O)n(CC1CCCCC1)c(=O)n2CC1CCCCC1 [Example 84, (E)-4-(1,3-Bis(cyclohexylmethyl)-2,3,6,7-tetrahydro-2,6-dioxo-7-(2-ethoxy-2-oxoethyl)-1H-purin-8-yl)cinnamic Acid Nonaethylene Glycol Methyl Ether Ester]"
14,0.008 ± 0.003,"C=C(C)Cn1c(-c2ccc(/C=C/C(=O)OCCOCCOCCOCCOCCOCCOCCOCCOCCOC)cc2)nc2c1c(=O)n(CC1CCCCC1)c(=O)n2CC1CCCCC1 [Example 86, (E)-4-(1,3-Bis(cyclohexylmethyl)-2,3,6,7-tetrahydro-2,6-dioxo-7-(2-methyl-2-propenyl)-1H-purin-8-yl)cinnamic Acid Nonaethylene Glycol Methyl Ether Ester]"
15,0.037 ± 0.013,"COCCOCCOCCOCCOCCOCCOCCOCCOCCOC(=O)/C=C/c1ccc(-c2nc3c(c(=O)n(CC4CCCCC4)c(=O)n3CC3CCCCC3)n2CC#N)cc1 [Example 87, (E)-4-(1,3-Bis(cyclohexylmethyl)-2,3,6,7-tetrahydro-2,6-dioxo-7-(cyanomethyl)-1H-purin-8-yl)cinnamic Acid Nonaethylene Glycol Methyl Ether Ester]"
16,0.24 ± 0.14,"COCCOCCOCCOCCOCCOCCOCCOCCOCCOC(=O)CCc1ccc(-c2nc3c(c(=O)n(CC4CCCCC4)c(=O)n3CC3CCCCC3)n2C)cc1 [Example 90, 4-[(1,3-Bis(cyclohexylmethyl)-2,3,6,7-tetrahydro-2,6-dioxo-7-methyl-1H-purin-8-yl)phenyl] propionic Acid Nonaethylene Glycol Methyl Ether Ester]"
17,0.06 ± 0.029,"COCCOCCOCCOCCOCCOCCOCCOCCOCCNC(=O)/C=C/c1ccc(-c2nc3c(c(=O)n(CC4CCCCC4)c(=O)n3CC3CCCCC3)n2C)cc1 [Example 91, (E)-4-(1,3-Bis(cyclohexylmethyl)-2,3,6,7-tetrahydro-2,6-dioxo-7-methyl-1H-purin-8-yl)cinnamic Acid Nonaethylene Glycol Methyl Ether Amide]"
18,0.023 ± 0.012,"COCCOCCOCCOCCOCCOCCOCCOCCOCCNC(=O)/C=C/c1ccc(-c2nc3c(c(=O)n(CC4CCCCC4)c(=O)n3CC3CCCCC3)n2Cc2ccccc2)cc1 [Example 92, (E)-4-(1,3-Bis(cyclohexylmethyl)-2,3,6,7-tetrahydro-2,6-dioxo-7-benzyl-1H-purin-8-yl)cinnamic Acid Nonaethylene Glycol Methyl Ether Amide]"
19,1.7 ± 0.69,"COCCOCCOCCN(CCOCCOCCOC)C(=O)/C=C/c1ccc(-c2nc3c(=O)n(CC4CCCCC4)c(=O)n(CC4CCCCC4)c3[nH]2)cc1 [Example 95, (E)-4-(1,3-bis(cyclohexylmethyl)-1,2,3,6-tetrahydro-2,6-dioxo-9H-purin-8-yl)cinnamic Acid N,N-Bis Triethylene Glycol Methyl Ether Amide]"

row,SMILES,IC50 [µM]
1,"COCCOCCOCCOCCOCCOCCOCCOCCOCCNC(=O)c1ccc(-c2nc3c(=O)n(CC4CCCCC4)c(=O)n(CC4CCCCC4)c3[nH]2)cc1 [Example 75, 4-(1,3-Bis(cyclohexylmethyl)-1,2,3,6-tetrahydro-2,6-dioxo-9H-purin-8-yl)benzoic Acid Nonaethylene Glycol Methyl Ether Amide]",0.06 ± 0.025
2,"COCCOCCOCCOCCOCCOCCOCCOCCOCCN(C)C(=O)c1ccc(-c2nc3c(=O)n(CC4CCCCC4)c(=O)n(CC4CCCCC4)c3[nH]2)cc1 [Example 76, 4-(1,3-Bis(cyclohexylmethyl)-1,2,3,6-tetrahydro-2,6-dioxo-9H-purin-8-yl) benzoic Acid-N-methyl-Nonaethylene Glycol Methyl Ether Amide]",0.35 ± 0.13
3,"COCCOCCOCCOCCOCCOCCOCCOCCOCCOC(=O)c1ccc(-c2nc3c(c(=O)n(CC4CCCCC4)c(=O)n3CC3CCCCC3)n2Cc2ccccc2)cc1 [Example 88, 4-(1,3-Bis(cyclohexylmethyl)-2,3,6,7-tetrahydro-2,6-dioxo-7-benzyl-1H-purin-8-yl)benzoic Acid Nonaethylene Glycol Methyl Ether Ester]",0.049 ± 0.019
4,"COCCOCCOCCOCCOCCOCCOCCOCCOCCOC(=O)c1ccc(-c2nc3c(c(=O)n(CC4CCCCC4)c(=O)n3CC3CCCCC3)n2C)cc1 [Example 89, 4-(1,3-Bis(cyclohexylmethyl)-2,3,6,7-tetrahydro-2,6-dioxo-7-methyl-1H-purin-8-yl)benzoic Acid Nonaethylene Glycol Methyl Ether Ester]",0.038 ± 0.018
5,"COCCOCCOCCOCCOCCOCCOCCOCCOCCNC(=O)c1ccc(-c2nc3c(c(=O)n(CC4CCCCC4)c(=O)n3CC3CCCCC3)n2Cc2ccccc2)cc1 [Example 93, 4-(1,3-Bis(cyclohexylmethyl)-2,3,6,7-tetrahydro-2,6-dioxo-7-benzyl-1H-purin-8-yl)benzoic Add Nonaethylene Glycol Methyl Ether Amide]",0.069 ± 0.097
6,"COCCOCCOCCOCCOCCOCCOCCOCCOCCNC(=O)c1ccc(-c2nc3c(c(=O)n(CC4CCCCC4)c(=O)n3CC3CCCCC3)n2C)cc1 [Example 94, 4-(1,3-Bis(cyclohexylmethyl)-2,3,6,7-tetrahydro-2,6-dioxo-7-methyl-1H-purin-8-yl)benzoic Acid Nonaethylene Glycol Methyl Ether Amide]",0.22 ± 0.087
